From PubChem BioAssay (NCI) come the findings set out here.

What all share (experiment): NCI tumour cell line growth inhibition, 48 h
For assay [1], the system named is ACHN renal.
Assay [2] concerns EKVX NSCLC.
For assay [3], the system named is K-562 leukemia.
Assay [4] has as its system NCI-H226 lung.
Assay [5] deals with RPMI-8226 leukemia.
The test system of assay [6] is SF-268 CNS.
The test system of assay [7] is SF-295 CNS.
Assay [8] concerns A498 renal.
The subject of assay [9] is HL-60(TB) leukemia.
The test system of assay [10] is HOP-92 NSCLC.
Assay [11] deals with MCF7 breast.
Assay [12] deals with UACC-257 melanoma.

Where “and” joins values, the source holds several entries; their conditions need not be identical. Equal entries are not always repeated.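 Dose response: 5 concentrations. Exposure: 48 h. Format: 96-well plates. Endpoint: linear interpolation; highest concentration if not reached. At the GI50, growth is halved. Definition used: TGI = concentration required for complete inhibition of growth.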

With `O=C(c1ccccc1)[C@H]1Nc2ccc(Cl)cc2[C@H]2OCCC[C@@H]12`, the TGI was determined as 93.5 µM in assay [1]; 50.4 µM in assay [2]; 51.4 µM in assay [3]; 47.7 µM in [4]; 57.7 µM in assay [5]; 39.5 µM in [6]. Further, the TGI in assay [7] was determined as 32.8 µM.
With `CS/C(=N\C(=S)Nc1ccccc1)Nc1ccccc1`, the TGI in assay [8] was 81.5 µM; in [1], 70.7 µM; in assay [9], 39.2 µM; in assay [3], greater than 100 µM; in assay [4], 70.5 µM; in assay [5] it was 62.1 µM. Moreover, the TGI in [6] is greater than 100 µM; in assay [7], 97 µM.
With `NC(=O)NO`, the TGI is 1990 µM in assay [8]; 2060 µM in assay [1]; greater than 2460 µM in [2]; 182 µM in assay [9]; 2330 µM in assay [10]; greater than 2260 µM in [3]. Moreover, the TGI in [11] is greater than 2460 µM; in assay [4], 2120 µM; in assay [5], 2260 µM; in assay [6], 2340 µM; in assay [7], 1950 µM; in assay [12], greater than 2500 µM. Further, the GI50 in [9] is 21 µM.
Take `CC(=O)Oc1ccc2c(C)cc(=O)oc2c1`: the TGI in assay [8], in assay [1], in [2], in assay [9], in [10] and in [3] was greater than 100 µM in each case. Moreover, the TGI in assay [11], in assay [4], in assay [5], in [6], in assay [7] and in assay [12] was greater than 100 µM in each case.
Regarding `COc1cc2nc(-c3cccs3)nc(N3C(c4ccc(O)cc4)=NNC(=O)c4ccccc43)c2cc1OC`, the TGI in assay [8] was greater than 100 µM; in [1], 55 µM; in [2] it was 75.6 µM; in assay [3], greater than 100 µM; in [11] it was greater than 100 µM; in assay [4], 41.4 µM. Moreover, the TGI in assay [5] was determined as 47.9 µM; in assay [6] it was 77.4 µM; in assay [7], 39.4 µM; in [12], 84.9 µM.
On to `CCCCNc1c(CN)cnc2cc(Cl)ccc12`, for which the TGI was 28.7 µM in assay [8]; 58.7 µM in [1]; 17.1 µM in [2]; 3.92 µM in [9]; 35.1 µM in assay [10]; 32.1 µM in assay [3]. The TGI turned out to be 27.6 µM in assay [11]; 32.6 µM in assay [4]; 37 µM in [5]; 57.6 µM in assay [6]; 29.8 µM in assay [7]; 26.5 µM in assay [12].
Turning to `N=C(N)C(N=Nc1ccccc1)C(N)=O` (stereo not drawn), the TGI in assay [8], in assay [1], in assay [2], in assay [9], in [10] and in assay [3] was greater than 100 µM each time. Also, the TGI in assay [11], in assay [4], in assay [5], in [6], in assay [7] and in [12] was greater than 100 µM in each case.
As to `CN(C)CCCNc1ncnc2nc[nH]c12`, the TGI in assay [8], in assay [1], in [2], in [10], in [3] and in assay [11] was greater than 100 µM each time. The TGI in assay [4], in assay [5], in assay [6] and in assay [7] was greater than 100 µM throughout.
Turning to `C=CCOC1OC(CS(=O)(=O)O)C(O)C(O)C1O` (stereo not drawn), the TGI in assay [8], in [9], in assay [10], in assay [3], in assay [11] and in [4] was greater than 100 µM each time. Besides, the TGI in [5], in assay [7] and in assay [12] was greater than 100 µM throughout.
`Cc1ccc2cc3c(ccc4ccccc43)c3c2c1CC3`: the GI50 in assay [8] was greater than 100 µM. Besides, the TGI in [8], in [1], in [2], in assay [9], in assay [10] and in [3] was greater than 100 µM each time. Besides, the TGI in assay [11] is greater than 18.3 µM; in [4], greater than 100 µM; in assay [5], greater than 100 µM; in [6], greater than 100 µM; in assay [7], greater than 100 µM; in assay [12], greater than 100 µM.
On to `O=C(O)C(O)Cc1ccccn1` (stereo not drawn), for which the TGI in assay [8], in assay [1], in assay [2], in assay [9], in assay [10] and in assay [3] was greater than 100 µM throughout. The TGI in assay [11], in [4], in assay [5], in assay [6], in assay [7] and in assay [12] was greater than 100 µM in each case.
Turning to `COc1ccc(C2C(=O)C(Cl)N2Nc2nc(C)cc(=O)[nH]2)cc1OC` (stereo not drawn), the TGI in assay [1] was greater than 100 µM; in [2], greater than 100 µM; in assay [9], 37.6 µM; in assay [10], 81.7 µM; in assay [3], greater than 100 µM; in [5], 55.9 µM. For the same compound, the TGI in [6] and in assay [12] was greater than 100 µM each time.
With `O=C(O)CSCC(=O)O`, the TGI in assay [8], in assay [1], in assay [2], in assay [9], in assay [10] and in assay [3] was greater than 100 µM each time. In addition, the TGI in assay [4], in assay [6], in assay [7] and in assay [12] was greater than 100 µM throughout.
Turning to `Nc1ccc2nc3ccc(N)cc3[n+](-c3ccccc3)c2c1`, the TGI in [8], in [1], in assay [2], in assay [9], in assay [10] and in [3] was greater than 100 µM throughout. Moreover, the TGI in assay [11] is greater than 100 µM; in [5] it was greater than 100 µM; in [6], greater than 100 µM; in assay [7] it was greater than 100 µM; in assay [12], 68 µM.
Take `c1ccc(C(c2ccccc2)[P+](c2ccccc2)(c2ccccc2)c2ccccc2)cc1`: the TGI in assay [8] was found to be 8.62 µM; in [2], 50.4 µM; in assay [9] it was 4.05 µM; in assay [10], 2.79 µM; in assay [3], 10.1 µM; in assay [11], 11.9 µM. Besides, the TGI was found to be 6.03 µM in assay [4]; 1.28 µM in assay [5]; 15.3 µM in assay [6]; 7.27 µM in [7]; 3.17 µM in assay [12].
Turning to `Nc1ccc(C2NC(=O)Cc3c2ccc2ccccc32)cc1` (stereo not drawn), the TGI in assay [8], in [1], in assay [2], in assay [9], in [10] and in [3] was greater than 100 µM in each case. The TGI in assay [11], in [4], in assay [5], in assay [6], in assay [7] and in [12] was greater than 100 µM in each case.
In the case of `C=C[C@H]1CC[C@H]2[C@@H]3CC=C4C[C@@H](OC5OCC(O)C(O)C5O)CC[C@]4(C)[C@H]3CC[C@]12C` (stereo partly drawn), the TGI in assay [8] is 21 µM; in assay [1], 10.8 µM; in assay [9], greater than 100 µM; in assay [10] it was 16.8 µM; in assay [3] it was greater than 100 µM; in assay [11], greater than 100 µM. The TGI is 34.6 µM in assay [4]; greater than 100 µM in [5]; 36.2 µM in assay [6]; 29.7 µM in [7]; greater than 100 µM in assay [12].
For `COc1ccccc1N1C(Cl)C(=O)C1c1c[nH]c2ccccc12` (stereo not drawn), the TGI in assay [2], in assay [9], in assay [10], in [3], in [5] and in assay [6] was greater than 100 µM in each case. Moreover, the TGI in [7] and in assay [12] was greater than 100 µM throughout.
`CCCCCCCCCCCCCCCC[N+](C)(C)CCN(Cc1ccc(OC)cc1)c1ncccn1`: the GI50 in [8] is 1.69 µM; in assay [1], 8.54 µM; in [2] it was 1.89 µM; in assay [9], 1.4 µM and 0.661 µM; in [3], 0.838 µM; in [4], 2.77 µM. The values for the GI50 in assay [6] and in assay [12] were 1.39 µM and 5.65 µM, respectively. For the same compound, the TGI in [8] was 5.21 µM; in [1], 32.9 µM; in [2], 7.52 µM; in [9] it was 3.99 µM and 4.79 µM; in assay [3], greater than 100 µM; in [4], 14 µM. The TGI in assay [6] was 3.74 µM; in assay [12], 39.8 µM.
Take `FC(F)(F)C(C1=NC(C(F)(F)F)(C(F)(F)F)N=C(N2CCOCC2)O1)C(F)(F)F`: the TGI in assay [1] is 49.3 µM; in assay [2], 61.3 µM; in [9], 22 µM; in assay [10], greater than 100 µM; in assay [5] it was 57.7 µM; in assay [6] it was greater than 100 µM. Moreover, the TGI amounted to 44.6 µM in assay [7] and 75.3 µM in assay [12].
Regarding `COc1cc(-c2c(C#N)c(N)c(C#N)c3c2COc2ccccc2-3)cc(OC)c1OC`, the TGI in assay [8] was greater than 100 µM; in [1], greater than 100 µM; in [2], greater than 69.4 µM; in assay [9] it was greater than 100 µM; in assay [10] it was 38.6 µM; in assay [3], greater than 100 µM. The TGI in [11] is greater than 100 µM; in [4], 59.4 µM; in assay [5], greater than 100 µM; in [6] it was 34 µM; in assay [7], 58.5 µM; in assay [12], greater than 100 µM.
`Cc1nc(Nc2ccc(F)cc2)c2sc(=S)n(-c3ccc(F)cc3)c2n1`: the TGI in assay [8] was 33.4 µM; in assay [1] it was 27 µM; in assay [2] it was 26.2 µM; in [9], 74.1 µM; in [3], greater than 100 µM; in [11], 18.7 µM. In addition, the TGI in [4] worked out at 33.5 µM; in assay [5], 21.9 µM; in [6], 23 µM; in assay [7], 27.3 µM; in assay [12], 26.2 µM.
For the compound `COc1ccc2oc(=O)cc(C)c2c1`, the TGI in assay [8], in [1], in [2], in assay [9], in assay [10] and in assay [3] was greater than 100 µM throughout. The TGI in assay [11], in assay [4], in assay [5], in assay [6], in assay [7] and in [12] was greater than 100 µM throughout.
